According to PubChem BioAssay AID256 (DTP/NCI, 2004):
Toxic doses and inconclusive results are not listed. Rule for the calls: active = survival T/C of 150% or more; inactive = T/C below 125% in these data.

Test system: CD2F1 mice, L1210 leukemia ip, survival T/C
Experiment: NCI In Vivo Anticancer Drug Screen. Data for tumor model L1210 Leukemia (intraperitoneal) in CD2F1 (CDF1) mice
Conditions: endpoint: mean survival time, higher = longer survival
How it was run: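 Implant tumor; dose compound or vehicle; measure endpoint in both groups; report treated divided by control.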

Measured: T/C

O=C1OCCO1
inactive: dose: 100.0 mg/kg/injection, schedule: Q01DX009 (ip), vehicle: saline with Tween-80 92 % of control | dose: 200.0 mg/kg/injection, schedule: Q01DX009 (ip), vehicle: saline with Tween-80 95 % of control | dose: 400.0 mg/kg/injection, schedule: Q01DX009 (ip), vehicle: saline with Tween-80 97 % of control

CC1CCC(N=C2OCCN2N=O)CC1 (centres undefined)
inactive: dose: 3.12 mg/kg/injection, schedule: Q01DX001 (ip), vehicle: water 97 % of control | dose: 6.25 mg/kg/injection, schedule: Q01DX001 (ip), vehicle: water 96 % of control | dose: 12.5 mg/kg/injection, schedule: Q01DX001 (ip), vehicle: water 98 % of control | dose: 25.0 mg/kg/injection, schedule: Q01DX001 (ip), vehicle: water 94 % of control | dose: 50.0 mg/kg/injection, schedule: Q01DX001 (ip), vehicle: water 94 % of control | dose: 100.0 mg/kg/injection, schedule: Q01DX001 (ip), vehicle: water 108 % of control

COc1ccc(C(=O)/C=C/c2ccc3cc(OC)c(OC)cc3c2)cc1OC
inactive: dose: 25.0 mg/kg/injection, schedule: Q01DX009 (ip), vehicle: water 98 % of control | dose: 50.0 mg/kg/injection, schedule: Q01DX009 (ip), vehicle: water 102 % of control

CN1C(=O)C(Cl)=C(Cl)C1=O
inactive: dose: 1.56 mg/kg/injection, schedule: Q04DX003 (ip), vehicle: saline 103 % of control | dose: 3.13 mg/kg/injection, schedule: Q04DX003 (ip), vehicle: saline 101 % of control | dose: 6.25 mg/kg/injection, schedule: Q04DX003 (ip), vehicle: saline 101 % of control
